Assay results taken from patent US20240299416A1, “TREATMENT OF NF-kB-MEDIATED DISEASE” (ReveraGen BioPharma, Inc., priority 2021, published 2024).

Tests used:
boys with DMD = test: VBP15-004 (VISION-DMD) Phase 2b efficacy at 24 weeks; format: in vivo, human
Source text: The second period of 24 weeks, where all participants receive vamorolone treatment on either of the two dose levels, will continue to capture additional longer-term safety and tolerability data.

[1] = Growth (height percentile) and BMI vs external comparators; format: in vivo, human
Description: As with the CINRG DNHS comparators, group-matching criteria were prespecified in the iSAP, and 2 independent statisticians carried out the participant matching. […] There was no corresponding 12-month assessment in vamorolone-treated participants. (Assessments of vamorolone-treated trial participants were 0, 3, 6, and 18 months).
Standing height and weight were assessed at each study visit. Height z-score, body mass index (BMI; kg/m^2), and BMI z-score were calculated centrally. AE reporting was done per protocol in the vamorolone trials.
The current study is the first to evaluate the longer-term tolerability, efficacy, and safety of vamorolone in DMD. […] Given the variable timing of dose escalations, it was prespecified that initial analyses of drug-related efficacy and safety would be limited to those participants who had 18 months of treatment with 2.0 mg/kg/day vamorolone or more (dose group C+dose group D; n=23). Outcomes for these participants were compared to a group-matched cohort from the CINRG DNHS over 18 months (corticosteroid-naïve, n=19; corticosteroid-treated, n=68). Participants were matched for age and treatment period (±1 month), matching criteria were prespecified in the statistical analysis plan. Two independent statisticians carried out the matching.
Participants in the corticosteroid-treated CINRG DNHS group were treated for at least 18 months, but the total duration, dose, and regimens varied.

[2] = vamorolone 18 months vs prednisone trial 12 months
[3] = vamorolone vs corticosteroid-naïve DNHS, 18 months
[4] = vamorolone vs corticosteroid-treated DNHS, 18 months

Mean BMI z-score, 18-month value (SD) ([1]; 18 months of treatment): 1.46 (0.62)
Mean BMI z-score, change from baseline (SD) ([1]; 18 months of treatment): 0.411 (0.615)
Mean height percentile for age, 18-month value (SD) ([1]; 18 months of treatment): 35.24 (29.82)
Mean BMI z-score, change from baseline (SD) ([1]; 18 months of treatment, listed as vamorolone): 0.41
LS Mean change in height percentiles for age ([1]; DMD children, 18 months treatment): +6.9
Mean BMI z-score, baseline value (SD) ([1]; baseline of 18-month period): 1.03 (0.56)
Mean height percentile for age, baseline value (SD) ([1]; baseline of 18-month period): 29.19 (24.66)
Mean BMI z-score, baseline value (SD) ([1]; baseline of 18-month period, listed as vamorolone): 1.03
BMI change from baseline to 18 months ([1]; original dose group B (0.75 mg/kg/day, escalated)): 0.5 kg/m^2
BMI change from baseline to 18 months ([1]; original dose group C (2.0 mg/kg/day)): 1.11 kg/m^2
BMI change from baseline to 18 months ([1]; original dose group D (6.0 mg/kg/day)): 2.55 kg/m^2
Mean BMI z-score, LS mean difference (SE) [1, 2]: 0.066 (0.193)
Mean height percentile for age, LS mean difference (SE) [1, 2]: 10.37 (3.86)
Mean height percentile for age, LS mean difference (SE) ([1]; vamorolone 18 months vs prednisone trial 12 months, listed as vamorolone): 10.37
Mean BMI z-score, LS mean difference (SE) [1, 3]: 0.899 (0.204)
Mean height percentile for age, LS mean difference (SE) [1, 3]: 6.72 (3.48)
Mean BMI z-score, LS mean difference (SE) [1, 4]: 0.282 (0.146)
Mean height percentile for age, LS mean difference (SE) [1, 4]: 15.86 (3.70)
Mean height percentile for age, LS mean difference (SE) ([1]; vamorolone vs corticosteroid-treated DNHS, 18 months, listed as vamorolone): 15.86
Structure (SMILES): C[C@@H]1C[C@H]2[C@@H]3CCC4=CC(=O)C=C[C@]4(C)C3=CC[C@]2(C)[C@@]1(O)C(=O)CO [Vamorolone, 17α,21-dihydroxy-16α-methylpregna-1,4,9(11)-triene-3,20-dione]
6MWT versus placebo (boys with DMD; 2 mg/kg/day, 24 weeks, p=0.009): superiority
TTSTAND velocity versus placebo (boys with DMD; 2 mg/kg/day, 24 weeks, p=0.02): superiority
TTSTAND (boys with DMD; 6 mg/kg/day group, baseline): 6.0 s
efficacy endpoints versus prednisone (boys with DMD; 6 mg/kg/day vs prednisone 0.75 mg/kg/day, 24 weeks): no statistically significant differences
TTRW versus placebo (boys with DMD; 6 mg/kg/day, 24 weeks, p=0.002): superiority
6MWT versus placebo (boys with DMD; 6 mg/kg/day, 24 weeks, p=0.003): superiority
